Like-named read-outs stand apart in the source and are kept apart here.
Columns and labels:
[1] = test system: heme oxygenase (HO-1) luciferase reporter; assay: Heme oxygenase (HO-1) luciferase reporter in HepG2 cells; conditions: HepG2 cell line; for Fold Induction of heme oxygenase luciferase activity: 24 hours, ratio over vehicle control, concentration not given; for expression of heme oxygenase promoter activity (in words): thirty percent induction over DMSO control considered active
GST enzyme = assay: GST activity assay in RL-34 cell lysate after treatment; assay type: cell-based, rat; conditions: RL-34 cells, 2 days, ratio over DMSO control
[2] = test system: phase II enzymes (GSTA1 and NQO1)
NQO1 enzyme = assay: NADPH quinone oxido reductase (NQO1) activity assay in RL-34 cell lysate after treatment; conditions: RL-34 cells, 2 days, ratio of treated over vehicle control
[3] = test system: metallothionein (MT 1, 2)
Nrf-2 = assay: Western blot of Nrf-2 in the nuclear fraction of HepG2 cells; assay type: cell-based, human; conditions: 4 hours, FIGS. 3 and 4
Procedure: Western blot detection—The HepG2 cell line was cultured as above and test compounds were added for four hours, after which the cells were lysed and the nuclear fraction was isolated (Dignam, J. D., R. M. Lebovitz, and R. G. Roeder, Nucleic Acids Res, 11(5): 1475-89, 1983). Total protein concentration was determined using the Bicinchoninic Acid Kit (Sigma). Total cell lysates (60 μg total protein) were electrophoresed and detection of Nrf-2 was performed using primary antibody incubation overnight at 4° C. (Santa Cruz Biotechnology, Inc, Santa Cruz, Calif.). Secondary antibody linked to horseradish peroxidase was incubated for one h (GE Healthcare, Piscataway, N.J.), after which proteins were visualized using the enhanced chemiluminescence (ECL) system. Densitometry was performed using Kodak Molecular Imaging Software v.4.0 (Eastman Kodak Company, Rochester, N.Y.) measuring the net intensity of the band.

[4] = HepG2 cells, 8 hours, 25 μg/ml, average of GSTA1 and NQO1

C=C1CC[C@@H]2[C@](C)(CO)[C@H](O)CC[C@@]2(C)[C@@H]1C/C=C1/C(=O)OC[C@H]1O [Andrographis, 3-(2-(Decahydro-6-hydroxy-5-(hydroxymethyl)-5,8a-dimethyl-2-methylenenaphthyl)ethylidene)dihydro-4-hydroxyfuran-2(3H)-one]
Fold Induction of heme oxygenase luciferase activity [1]: 4.4 fold | Fold Induction of GST activity (GST enzyme; 25 ug/mL): 1.4 fold | Phase II (ave) Ratio to DMSO [2, 4]: 2.29 | Induction of NQO1 activity (NQO1 enzyme; 25 ug/mL): 4.5 | HMOX1 Ratio to DMSO (heme oxygenase (HMOX1); HepG2 cells, 8 hours, 25 μg/ml): 2.43 | MT 1,2 (ave) Ratio to DMSO ([3]; HepG2 cells, 8 hours, 25 μg/ml): 0.87

COc1ccc2cc3[n+](cc2c1OC)CCc1cc2c(cc1-3)OCO2 [Berberine]
Fold Induction of GST activity (GST enzyme; 20 ug/mL): 1.0 fold | Induction of NQO1 activity (NQO1 enzyme; 20 ug/mL): 1.4

O=c1c(-c2ccc(O)cc2)coc2cc(O)cc(O)c12 [Bonistein]
Fold Induction of GST activity (GST enzyme; 20 ug/mL): 1.0 fold | Induction of NQO1 activity (NQO1 enzyme; 20 ug/mL): 1.2

[Cl][Cd][Cl] [CdCl2, reference compound]
Phase II (ave) Ratio to DMSO ([2]; HepG2 cells, 8 hours, 40 uM, average of GSTA1 and NQO1): 0.94 | phase II gene induction (in words) ([2]; HepG2 cells, controls): unable to increase | HMOX1 Ratio to DMSO (heme oxygenase (HMOX1); HepG2 cells, 8 hours, 40 uM): 21.23 | HMOX1 gene induction (in words) (heme oxygenase (HMOX1); HepG2 cells, controls): induce | MT 1,2 (ave) Ratio to DMSO ([3]; HepG2 cells, 8 hours, 40 uM): 83.31 | MT gene induction (in words) ([3]; HepG2 cells, controls): induce

COc1cc(C=CC(=O)CC(=O)C=Cc2ccc(O)c(OC)c2)ccc1O [Curcumin, 1,7-Bis(4-hydroxy-3-methoxyphenyl)hepta-1,6-diene-3,5-dione]
Fold Induction of heme oxygenase luciferase activity [1]: 6.1 fold | expression of heme oxygenase promoter activity (in words) [1]: induced | Fold Induction of GST activity (GST enzyme; 5 ug/mL): 1.0 fold | Phase II (ave) Ratio to DMSO ([2]; HepG2 cells, 8 hours, 5 μg/ml, average of GSTA1 and NQO1): 1.15 | Induction of NQO1 activity (NQO1 enzyme; 5 ug/mL): 4.6 | HMOX1 Ratio to DMSO (heme oxygenase (HMOX1); HepG2 cells, 8 hours, 5 μg/ml): 2.09 | MT 1,2 (ave) Ratio to DMSO ([3]; HepG2 cells, 8 hours, 5 μg/ml): 0.90

CC/C=C\C/C=C\C/C=C\C/C=C\C/C=C\C/C=C\CCC(=O)O [DHA]
Fold Induction of GST activity (GST enzyme; 20 ug/mL): 1.0 fold | Induction of NQO1 activity (NQO1 enzyme; 20 ug/mL): 0.9

C[C@]12CC[C@H](O)CC1=CC[C@@H]1[C@@H]2CC[C@]2(C)C(=O)CC[C@@H]12 [DHEA]
Induction of NQO1 activity (NQO1 enzyme; 20 ug/mL): 1.1

c1ccc2c(Cc3c[nH]c4ccccc34)c[nH]c2c1 [DIM]
Induction of NQO1 activity (NQO1 enzyme; 25 ug/mL): 1.5

CC1(C)C=Cc2c(ccc3c2OC[C@@H](c2ccc(O)cc2O)C3)O1 [Glabridin]
Fold Induction of GST activity (GST enzyme; 20 ug/mL): 1.0 fold | Induction of NQO1 activity (NQO1 enzyme; 20 ug/mL): 1.0

N[C@H]1C(O)O[C@H](CO)[C@@H](O)[C@@H]1O (stereo partly drawn) [Glucosamine]
Fold Induction of GST activity (GST enzyme; 20 ug/mL): 1.1 fold | Induction of NQO1 activity (NQO1 enzyme; 20 ug/mL): 1.0

OCc1c[nH]c2ccccc12 [I3C]
Fold Induction of GST activity (GST enzyme; 25 ug/mL): 1.1 fold | Induction of NQO1 activity (NQO1 enzyme; 25 ug/mL): 2.4

CC(C)Oc1ccc2c(=O)c(-c3ccccc3)coc2c1 [Ipriflavone]
Fold Induction of GST activity (GST enzyme; 20 ug/mL): 1.1 fold | Induction of NQO1 activity (NQO1 enzyme; 20 ug/mL): 0.8

O=C([O-])CC(O)(CC(=O)[O-])C(=O)[O-].[K+].[K+].[K+] [K-Citrate]
Fold Induction of GST activity (GST enzyme; 20 ug/mL): 1.1 fold | Induction of NQO1 activity (NQO1 enzyme; 20 ug/mL): 0.9

CC1(C)CC[C@]2(C(=O)O)CC[C@]3(C)C(=CC[C@@H]4[C@@]5(C)CC[C@H](O)C(C)(C)[C@@H]5CC[C@]43C)[C@@H]2C1 [Oleanolic acid]
Fold Induction of heme oxygenase luciferase activity [1]: 2.7 fold | expression of heme oxygenase promoter activity (in words) [1]: induced | Fold Induction of GST activity (GST enzyme; 25 ug/mL): 1.0 fold | Phase II (ave) Ratio to DMSO [2, 4]: 0.91 | Induction of NQO1 activity (NQO1 enzyme; 25 ug/mL): 1.5 | HMOX1 Ratio to DMSO (heme oxygenase (HMOX1); HepG2 cells, 8 hours, 25 μg/ml): 1.88 | MT 1,2 (ave) Ratio to DMSO ([3]; HepG2 cells, 8 hours, 25 μg/ml): 2.39

C/C=C1/[C@H](O[C@@H]2O[C@H](CO)[C@@H](O)[C@H](O)[C@H]2O)OC=C(C(=O)OC)[C@H]1CC(=O)OCCc1ccc(O)c(O)c1 [Oleuropein]
Fold Induction of GST activity (GST enzyme; 20 ug/mL): 1.0 fold | Induction of NQO1 activity (NQO1 enzyme; 20 ug/mL): 1.0

O=C(CCc1ccc(O)cc1)c1c(O)cc(O)cc1O[C@@H]1O[C@H](CO)[C@@H](O)[C@H](O)[C@H]1O [Phloridzin]
Fold Induction of GST activity (GST enzyme; 20 ug/mL): 1.0 fold | Induction of NQO1 activity (NQO1 enzyme; 20 ug/mL): 1.0

O=c1c(O)c(-c2ccc(O)c(O)c2)oc2cc(O)cc(O)c12 [Quercitin]
Fold Induction of GST activity (GST enzyme; 20 ug/mL): 1.0 fold | Induction of NQO1 activity (NQO1 enzyme; 20 ug/mL): 1.4

Oc1ccc(C=Cc2cc(O)cc(O)c2)cc1 [Resveratrol]
Induction of NQO1 activity (NQO1 enzyme; 20 ug/mL): 2.2

C[C@@H]1O[C@@H](OC[C@H]2O[C@@H](Oc3c(-c4ccc(O)c(O)c4)oc4cc(O)cc(O)c4c3=O)[C@H](O)[C@@H](O)[C@@H]2O)[C@H](O)[C@H](O)[C@H]1O [Rutin]
Fold Induction of GST activity (GST enzyme; 20 ug/mL): 1.0 fold | Induction of NQO1 activity (NQO1 enzyme; 20 ug/mL): 0.9

C[S+]([O-])CCCCN=C=S (stereo not drawn) [Sulforaphane, reference compound]
Fold Induction of heme oxygenase luciferase activity [1]: 4.2 fold | expression of heme oxygenase promoter activity (in words) [1]: induced | Fold Induction of GST activity (GST enzyme; 3 ug/mL): 1.8 fold | Phase II (ave) Ratio to DMSO [2]: 1.84 | phase II gene induction (in words) [2]: increased | Induction of NQO1 activity (NQO1 enzyme; 3 ug/mL): 3.7 | Nrf-2 nuclear translocation (Nrf-2): dramatic increase | HMOX1 Ratio to DMSO (heme oxygenase (HMOX1)): 8.82 | HMOX1 gene induction (in words) (heme oxygenase (HMOX1)): increased | MT 1,2 (ave) Ratio to DMSO [3]: 0.67 | MT gene induction (in words) [3]: but not MT

O=c1oc2c(O)c3oc(=O)c4c5c(oc(=O)c6cc(O)c(O)c(O)c65)c(O)c5oc(=O)c(c2c2c(O)c(O)c(O)cc12)c3c54 [Terminalin]
Fold Induction of heme oxygenase luciferase activity [1]: 1.7 fold | expression of heme oxygenase promoter activity (in words) [1]: induced | Fold Induction of GST activity (GST enzyme; 25 ug/mL): 1.0 fold | Induction of NQO1 activity (NQO1 enzyme; 25 ug/mL): 1.0

O=C1O[C@H]([C@@H](O)CO)C(O)=C1O [Vitamin C]
Fold Induction of GST activity (GST enzyme; 20 ug/mL): 1.1 fold | Induction of NQO1 activity (NQO1 enzyme; 20 ug/mL): 0.9

CC(C)=CCC/C(C)=C/CC/C(C)=C/CC/C(C)=C/CC1=C(C)C(=O)c2ccccc2C1=O [Vitamin K2]
Induction of NQO1 activity (NQO1 enzyme; 20 ug/mL): 0.9

COc1cc(O)c(CC=C(C)C)c(O)c1C(=O)/C=C/c1ccc(O)cc1 [Xanthohumol]
Fold Induction of heme oxygenase luciferase activity [1]: 5.4 fold | expression of heme oxygenase promoter activity (in words) [1]: induced | Fold Induction of GST activity (GST enzyme; 1 ug/mL): 1.4 fold | Phase II (ave) Ratio to DMSO ([2]; HepG2 cells, 8 hours, 1 μg/ml, average of GSTA1 and NQO1): 1.02 | Induction of NQO1 activity (NQO1 enzyme; 1 ug/mL): 3.7 | HMOX1 Ratio to DMSO (heme oxygenase (HMOX1); HepG2 cells, 8 hours, 1 μg/ml): 1.11 | MT 1,2 (ave) Ratio to DMSO ([3]; HepG2 cells, 8 hours, 1 μg/ml): 0.90

[Cl-].[Cl-].[Zn+2] [ZnCl2]
Fold Induction of heme oxygenase luciferase activity [1]: 1.5 fold | expression of heme oxygenase promoter activity (in words) [1]: induced | Phase II (ave) Ratio to DMSO ([2]; HepG2 cells, 8 hours, 10 μg/ml, average of GSTA1 and NQO1): 0.94 | HMOX1 Ratio to DMSO (heme oxygenase (HMOX1); HepG2 cells, 8 hours, 10 μg/ml): 0.97 | MT 1,2 (ave) Ratio to DMSO ([3]; HepG2 cells, 8 hours, 10 μg/ml): 12.43

O=C(/C=C/c1ccc(O)c(O)c1)O[C@@H]1C[C@](O)(C(=O)O)C[C@@H](O)[C@H]1O [chlorogenic acid]
Fold Induction of GST activity (GST enzyme; 25 ug/mL): 1.1 fold | Induction of NQO1 activity (NQO1 enzyme; 25 ug/mL): 1.2

Hyaluronic acid
Induction of NQO1 activity (NQO1 enzyme; 20 ug/mL): 0.9

Inulin
Induction of NQO1 activity (NQO1 enzyme; 20 ug/mL): 0.9
